The text below walks through data of patent US12662490B2, “Heterocyclic compounds” (Hoffmann-La Roche Inc., priority 2019, dated 2026).

Usually IC50 stands for the concentration at which inhibition is half-maximal.

The assay deals with T1, MAGL (Homo sapiens, UniProt Q99685).
T1 sequence (Q99685 1-303): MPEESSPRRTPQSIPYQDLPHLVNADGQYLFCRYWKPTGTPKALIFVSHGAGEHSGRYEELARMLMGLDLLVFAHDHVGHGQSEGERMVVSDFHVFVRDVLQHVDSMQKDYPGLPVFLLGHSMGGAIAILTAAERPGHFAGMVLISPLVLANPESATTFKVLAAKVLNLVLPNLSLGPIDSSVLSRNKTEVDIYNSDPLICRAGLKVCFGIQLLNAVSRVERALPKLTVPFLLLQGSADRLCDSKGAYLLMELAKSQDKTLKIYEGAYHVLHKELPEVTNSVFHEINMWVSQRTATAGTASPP
Nature of the assay: 2-AG assay (MAGL inhibitory activity; hydrolysis of 2-arachidonoylglycerol to arachidonic acid followed by mass spectrometry). The format is biochemical. The following applies: 15 min preincubation at RT, 8 μM 2-arachidonoylglycerol, 30 min at RT, RapidFire MS readout. As to the method:
Compounds were profiled for MAGL inhibitory activity by determining the enzymatic activity by following the hydrolysis of the natural substrate 2-arachidonoylglycerol (2-AG) resulting in arachidonic acid, which can be followed by mass spectrometry. This assay is hereinafter abbreviated “2-AG assay”.
The 2-AG assay was carried out in 384 well assay plates (PP, Greiner Cat #784201) in a total volume of 20 μL. Compound dilutions were made in […] (VWR Chemicals 23500.297) in a polypropylene plate in 3-fold dilution steps to give a final concentration range in the assay from 12.5 μM to […]. 0.25 μL compound dilutions (100% DMSO) were added to 9 μL MAGL in assay buffer (50 mM TRIS (GIBCO, 15567-027), 1 mM EDTA (Fluka, 03690-100 mL), 0.010 (v/v) Tween. After shaking, the plate was incubated for 15 min at RT. To start the reaction, 10 μL 2-arachidonoylglycerol in assay buffer was added. The final concentrations in the assay was […] and 8 μM 2-arachidonoylglyerol. After shaking and 30 min incubation at RT, the reaction was quenched by the addition of 40 μL of ACN containing 4 μM of d8-arachidonic acid. The amount of arachidonic acid was traced by an online SPE system (Agilent Rapidfire) coupled to a triple quadrupole mass spectrometer (Agilent 6460). A C18 SPE cartridge (G9205A) was used in an ACN/water liquid setup. The mass spectrometer was operated in negative electrospray mode following the mass transitions 303.1→259.1 for arachidonic acid and 311.1→267.0 for d8-arachidonic acid. The activity of the compounds was calculated based on the ratio of intensities [arachidonic acid/d8-arachidonic acid].

Turning to `O=C(c1cccc(-c2c[nH]nc2F)c1)N1CCN2C[C@@](O)(c3ccc(F)c(F)c3)OC[C@@H]2C1` [Example 93, [(3R,9aS)-3-(3,4-difluorophenyl)-3-hydroxy-1,4,6,7,9,9a-hexahydropyrazino[2,1-c][1,4]oxazin-8-yl]-[3-(3-fluoro-1H-pyrazol-4-yl)phenyl]methanone], the concentration for half-maximal inhibition (IC50) is 0.0819 µM. As for `COc1cccc(C(=O)N2CCN3C[C@@](O)(c4ccc(C(F)(F)F)nc4C)OC[C@@H]3C2)c1Cl` [Example 153, [(3R,9aS)-3-hydroxy-3-[2-methyl-6-(trifluoromethyl)-3-pyridyl]-1,4,6,7,9,9a-hexahydropyrazino[2,1-c][1,4]oxazin-8-yl]-(2-chloro-3-methoxy-phenyl)methanone], the IC50 is 0.705 µM. `COc1cccc(C(=O)N2CCN3C[C@@H](c4ccc(F)c(Cl)c4)OC[C@]3(C)C2)c1Cl` (stereo in doubt) [Example 32, (2-chloro-3-methoxy-phenyl)-[(rel-3R,9aS)-3-(3-chloro-4-fluoro-phenyl)-9a-methyl-1,3,4,6,7,9-hexahydropyrazino[2,1-c][1,4]oxazin-8-yl]methanone] displayed a concentration for half-maximal inhibition (IC50) of 0.335 µM. To `COc1ccc(-c2nc([C@]3(O)CN4CCN(C(=O)c5cccc(OC)c5Cl)C[C@H]4CO3)cs2)cn1` [Example 160, [(3S,9aS)-3-hydroxy-3-[2-(6-methoxy-3-pyridyl)thiazol-4-yl]-1,4,6,7,9,9a-hexahydropyrazino[2,1-c][1,4]oxazin-8-yl]-(2-chloro-3-methoxy-phenyl)methanone] belongs 1.6 µM; to `COc1cccc(C(=O)N2CCN3C[C@H](c4cncc(Cl)c4)OC[C@@H]3C2)c1Cl` (racemic) [Example 58, (2-chloro-3-methoxy-phenyl)-[rac-(3S,9aS)-3-(5-chloro-3-pyridyl)-3,4,6,7,9,9a-hexahydro-1H-pyrazino[2,1-c][1,4]oxazin-8-yl]methanone], 2.22 µM; to `COc1ccccc1-c1cccc(C(=O)N2CCN3C[C@@H](c4ccc(F)c(Cl)c4)OC[C@@H]3C2)c1Cl` [Example 23, [(3R,9aS)-3-(3-chloro-4-fluoro-phenyl)-3,4,6,7,9,9a-hexahydro-1H-pyrazino[2,1-c][1,4]oxazin-8-yl]-[2-chloro-3-(2-methoxyphenyl)phenyl]methanone], 0.0263 µM. Next, `COc1cccc(C(=O)N2CCN3C[C@H](c4ccc(F)c(-c5ccccc5)c4)OC[C@@H]3C2)c1Cl` [Example 12, [(3S,9aS)-3-(4-fluoro-3-phenyl-phenyl)-3,4,6,7,9,9a-hexahydro-1H-pyrazino[2,1-c][1,4]oxazin-8-yl]-(2-chloro-3-methoxy-phenyl)methanone]: 0.575 µM. `COc1cccc(C(=O)N2CCN3C[C@@](O)(c4nc5ccccc5[nH]4)OC[C@@H]3C2)c1Cl` (single isomer, unassigned) [Example 60] came in with a half-inhibitory concentration (IC50) of 0.951 µM. As for `Cc1cnccc1-c1cccc(C(=O)N2CCN3C[C@@H](c4ccc(F)c(Cl)c4)OC[C@@H]3C2)c1Cl` [Example 28, [(3R,9aS)-3-(3-chloro-4-fluoro-phenyl)-3,4,6,7,9,9a-hexahydro-1H-pyrazino[2,1-c][1,4]oxazin-8-yl]-[2-chloro-3-(3-methyl-4-pyridyl)phenyl]methanone], the IC50 was found to be 0.0326 µM. Turning to `COc1cccc(C(=O)N2CCN3C[C@@H](c4ccc(Cl)c(C(F)(F)F)n4)OC[C@@H]3C2)c1Cl` [Example 148, [(3S,9aS)-3-[5-chloro-6-(trifluoromethyl)-2-pyridyl]-3,4,6,7,9,9a-hexahydro-1H-pyrazino[2,1-c][1,4]oxazin-8-yl]-(2-chloro-3-methoxy-phenyl)methanone], the IC50 was 0.426 µM. To `COc1cccc(C(=O)N2CCN3C[C@@H](c4ccc(F)c(C#N)c4)OC[C@@H]3C2)c1Cl` [Example 14, [(3R,9aS)-3-(3-cyano-4-fluoro-phenyl)-3,4,6,7,9,9a-hexahydro-1H-pyrazino[2,1-c][1,4]oxazin-8-yl]-(2-chloro-3-methoxy-phenyl)methanone] belongs 0.153 µM; to `COc1cccc(C(=O)N2CCN3C[C@@H](c4sc(C)nc4C)OC[C@@H]3C2)c1Cl` (single isomer, unassigned) [Example 51], 4.98 µM. To `COc1cccc(C(=O)N2CCN3C[C@@H](c4cccc(F)c4F)OC[C@@H]3C2)c1Cl` [Example 149, [(3R,9aS)-3-(2,3-difluorophenyl)-3,4,6,7,9,9a-hexahydro-1H-pyrazino[2,1-c][1,4]oxazin-8-yl]-(2-chloro-3-methoxy-phenyl)methanone] belongs 0.468 µM; to `COc1cccc(C(=O)N2CCN3C[C@@H](c4cc(Cl)c[nH]c4=O)OC[C@@H]3C2)c1Cl` [Example 75, 3-[(3R,9aS)-8-(2-chloro-3-methoxy-benzoyl)-3,4,6,7,9,9a-hexahydro-1H-pyrazino[2,1-c][1,4]oxazin-3-yl]-5-chloro-1H-pyridin-2-one], 0.85 µM. Next, `O=C(c1cccc(-c2c[nH]nc2F)c1Cl)N1CCN2C=C(c3ccc(C(F)(F)F)cn3)OC[C@@H]2C1` [Example 94, [(9aS)-3-[5-(trifluoromethyl)-2-pyridyl]-6,7,9,9a-tetrahydro-1H-pyrazino[2,1-c][1,4]oxazin-8-yl]-[2-chloro-3-(3-fluoro-1H-pyrazol-4-yl)phenyl]methanone]: 0.22 µM. Take `O=C(c1cccc(-c2c[nH]nc2F)c1Cl)N1CCN2C[C@@H](c3cc(Cl)c[nH]c3=O)OC[C@@H]2C1` [Example 77, 3-[(3R,9aS)-8-[2-chloro-3-(3-fluoro-1H-pyrazol-4-yl)benzoyl]-3,4,6,7,9,9a-hexahydro-1H-pyrazino[2,1-c][1,4]oxazin-3-yl]-5-chloro-1H-pyridin-2-one]: the concentration for half-maximal inhibition (IC50) was determined as 0.0463 µM. To `COc1cccc(C(=O)N2CCN3CC(c4ccc(F)c(Cl)c4)SC[C@@H]3C2)c1Cl` (single isomer, unassigned) [Example 162] belongs 0.0216 µM; to `O=C(c1cccc(-c2ccc(=O)[nH]c2)c1Cl)N1CCN2C[C@@H](c3ccc(F)c(Cl)c3)OC[C@@H]2C1` [Example 106, 5-[3-[(3R,9aS)-3-(3-chloro-4-fluoro-phenyl)-3,4,6,7,9,9a-hexahydro-1H-pyrazino[2,1-c][1,4]oxazine-8-carbonyl]-2-chloro-phenyl]-1H-pyridin-2-one], 0.0143 µM. Next, `COc1cccc(C(=O)N2CCN3C[C@@](O)(c4cc(Cl)cc(-c5cnco5)c4)OC[C@@H]3C2)c1Cl` [Example 154, [(3R,9aS)-3-(3-chloro-5-oxazol-5-yl-phenyl)-3-hydroxy-1,4,6,7,9,9a-hexahydropyrazino[2,1-c][1,4]oxazin-8-yl]-(2-chloro-3-methoxy-phenyl)methanone]: 0.769 µM.

In turn, `O=C(c1cccc(-c2cocn2)c1Cl)N1CCN2C[C@@](O)(c3ccc(C(F)(F)F)cn3)OC[C@@H]2C1` [Example 86, [(3S,9aS)-3-hydroxy-3-[5-(trifluoromethyl)-2-pyridyl]-1,4,6,7,9,9a-hexahydropyrazino[2,1-c][1,4]oxazin-8-yl]-(2-chloro-3-oxazol-4-yl-phenyl)methanone] came in with a half-maximal inhibitory concentration (IC50) of 0.237 µM. Next, `COc1cccc(C(=O)N2CCN3C[C@@H](c4cc(F)c(F)cc4F)OC[C@@H]3C2)c1Cl` [Example 128, [(3R,9aS)-3-(2,4,5-trifluorophenyl)-3,4,6,7,9,9a-hexahydro-1H-pyrazino[2,1-c][1,4]oxazin-8-yl]-(2-chloro-3-methoxy-phenyl)methanone]: 0.103 µM.
